Results: ChEMBL document CHEMBL1151653, “13-Deoxycarminomycin, a new biosynthetic anthracycline” (J Nat Prod, 1985)
Converted amounts (≈) assume the structure as drawn.

Tests used:
HeLa [1] = assay: Cytotoxicity against human HeLa cells assessed as colony formation at 1.5 ng/ml relative to control; format: functional
P388 [2] = assay: Cytotoxicity against doxorubicin resistant mouse P388 cells; format: functional; conditions: read-out: ID50 (the source's name)
HeLa [3] = assay: Cytotoxicity against human HeLa cells assessed as inhibition of colony formation relative to control; format: functional; conditions: read-out: ID50 (the source's name)
HeLa [4] = assay: Cytotoxicity against human HeLa cells assessed as colony formation at 12.5 ng/ml relative to control; format: functional
P388 [5] = assay: Cytotoxicity against mouse P388 cells; format: functional; conditions: read-out: ID50 (the source's name)
HeLa [6] = assay: Cytotoxicity against human HeLa cells assessed as colony formation at 3.1 ng/ml relative to control; format: functional
HeLa [7] = assay: Cytotoxicity against human HeLa cells assessed as colony formation at 6.2 ng/ml relative to control; format: functional
HeLa [8] = assay: Cytotoxicity against human HeLa cells assessed as inhibition of colony formation at 25 ng/ml relative to control; format: functional; design: scale not given: the % may be the effect or the level left
P388 [9] = assay: Antitumor activity against mouse P388 cells xenografted in mouse assessed as median survival time at 6.6 mg/kg, ip relative to control; format: functional; conditions: route intraperitoneal
Mus musculus [10] = assay: Toxicity in mouse P388 cells xenografted mouse assessed as induction of death at 4.4 mg/kg, ip; format: organism-based; design: dose 4.4 mg/kg, route intraperitoneal; conditions: in vivo
P388 [11] = assay: Antitumor activity against mouse P388 cells xenografted in mouse assessed as median survival time at 2.9 mg/kg, ip relative to control; format: functional; conditions: route intraperitoneal
P388 [12] = assay: Antitumor activity against mouse P388 cells xenografted in mouse assessed as median survival time at 4.4 mg/kg, ip relative to control; format: functional; conditions: route intraperitoneal
Mus musculus [13] = assay: Toxicity in mouse P388 cells xenografted mouse assessed as induction of death at 2.9 mg/kg, ip; format: organism-based; design: dose 2.9 mg/kg, route intraperitoneal; conditions: in vivo
P388 [14] = assay: Antitumor activity against mouse P388 cells xenografted in mouse assessed as median survival time at 0.4 mg/kg, ip relative to control; format: functional; conditions: route intraperitoneal
Mus musculus [15] = assay: Toxicity in mouse P388 cells xenografted mouse assessed as induction of death at 1.5 mg/kg, ip; format: organism-based; design: dose 1.5 mg/kg, route intraperitoneal; conditions: in vivo
Staphylococcus aureus [16] = assay: Antimicrobial activity against Staphylococcus aureus 209 P by tube dilution method; format: functional
Escherichia coli = assay: Antimicrobial activity against Escherichia coli B ATCC 11303 by tube dilution method; format: functional
Micrococcus luteus = assay: Antimicrobial activity against Sarcina lutea ATCC 9341 by tube dilution method; format: functional
Staphylococcus aureus [17] = assay: Antimicrobial activity against drug resistant Staphylococcus aureus isolate 153 producing beta lactamase by tube dilution method; format: functional
P388 [18] = assay: Antitumor activity against mouse P388 cells xenografted in mouse assessed as median survival time at 1 mg/kg, ip relative to control; format: functional; conditions: route intraperitoneal
P388 [19] = assay: Antitumor activity against mouse P388 cells xenografted in mouse assessed as median survival time at 1.5 mg/kg, ip relative to control; format: functional; conditions: route intraperitoneal
Mus musculus [20] = assay: Toxicity in mouse P388 cells xenografted mouse assessed as induction of death at 0.6 mg/kg, ip; format: organism-based; design: dose 0.6 mg/kg, route intraperitoneal; conditions: in vivo
P388 [21] = assay: Antitumor activity against mouse P388 cells xenografted in mouse assessed as median survival time at 0.6 mg/kg, ip relative to control; format: functional; conditions: route intraperitoneal
Mus musculus [22] = assay: Toxicity in mouse P388 cells xenografted mouse assessed as induction of death at 0.4 mg/kg, ip; format: organism-based; design: dose 0.4 mg/kg, route intraperitoneal; conditions: in vivo
Bacillus subtilis = assay: Antimicrobial activity against Bacillus subtilis ATCC 6633 by tube dilution method; format: functional

SMILES	Activity (HeLa [1]) [%]	IC50 (P388 [2]) [µg/mL]	IC50 (HeLa [3]) [µg/mL]	Activity (HeLa [4]) [%]	IC50 (P388 [5]) [µg/mL]	Activity (HeLa [6]) [%]	Activity (HeLa [7]) [%]	also measured
CC(=O)[C@]1(O)Cc2c(O)c3c(c(O)c2[C@@H](O[C@H]2C[C@H](N)[C@H](O)[C@H](C)O2)C1)C(=O)c1c(O)cccc1C3=O [CARUBICIN]	120	0.004 (≈ 0.00779 µM)	0.0031 (≈ 0.00604 µM)	0	0.007 (≈ 0.0136 µM)	33	3	–
COc1cccc2c1C(=O)c1c(O)c3c(c(O)c1C2=O)C[C@@](O)(C(C)=O)C[C@@H]3O[C@H]1C[C@H](N)[C@H](O)[C@H](C)O1 [DAUNORUBICIN]	–	0.75 (≈ 1.42 µM)	0.0125 (≈ 0.0237 µM)	48	0.0095 (≈ 0.018 µM)	–	123	Activity (HeLa [8]): 13%; T/C (P388 [9]): 168%; Activity (Mus musculus [10]): Non-toxic; T/C (P388 [11]): 177%; T/C (P388 [12]): 190%; Activity (Mus musculus [13]): Non-toxic
CC[C@]1(O)Cc2c(O)c3c(c(O)c2[C@@H](O[C@H]2C[C@H](N)[C@H](O)[C@H](C)O2)C1)C(=O)c1c(O)cccc1C3=O	126	0.004 (≈ 0.00801 µM)	0.0062 (≈ 0.0124 µM)	36	0.0015 (≈ 0.003 µM)	90	55	Activity (P388 [14]): 136%; Activity (Mus musculus [15]): Toxic; MIC (Staphylococcus aureus [16]): 12.5 µg/mL (≈ 25 µM); MIC (Escherichia coli): 3.12 µg/mL (≈ 6.25 µM); MIC (Micrococcus luteus): 1.56 µg/mL (≈ 3.12 µM); MIC (Staphylococcus aureus [17]): 25 µg/mL (≈ 50 µM); Activity (P388 [18]): 163%; Activity (P388 [19]): 109%; Activity (Mus musculus [20]): Non-toxic; Activity (P388 [21]): 150%; Activity (Mus musculus [22]): Non-toxic; MIC (Bacillus subtilis): 6.25 µg/mL (≈ 12.5 µM)
